From ChEMBL document CHEMBL1221208, “ATP-competitive inhibitors of the mitotic kinesin KSP that function via an allosteric mechanism” (Nat Chem Biol, 2007)
Positions count from the first letter of the chain named. Activity calls are given as the source filed them. No cut-off for these calls is given here.

Assays:
[1] = target: Kinesin-like protein KIF11 (Homo sapiens, UniProt P52732, A133D); assay: Inhibition of human KSP A133D mutant using varying ATP levels in presence of saturating levels of microtubule by Lineweaver-Burke plot
[2] = test system: T1, Kinesin-like protein KIF11 (Homo sapiens), P52732 [D130V]; assay: Competitive inhibition of human KSP D130V mutant with respect to ATP using varying ATP levels in presence of saturating levels of microtubule by Lineweaver-Burke plot
T1 sequence (whole entry): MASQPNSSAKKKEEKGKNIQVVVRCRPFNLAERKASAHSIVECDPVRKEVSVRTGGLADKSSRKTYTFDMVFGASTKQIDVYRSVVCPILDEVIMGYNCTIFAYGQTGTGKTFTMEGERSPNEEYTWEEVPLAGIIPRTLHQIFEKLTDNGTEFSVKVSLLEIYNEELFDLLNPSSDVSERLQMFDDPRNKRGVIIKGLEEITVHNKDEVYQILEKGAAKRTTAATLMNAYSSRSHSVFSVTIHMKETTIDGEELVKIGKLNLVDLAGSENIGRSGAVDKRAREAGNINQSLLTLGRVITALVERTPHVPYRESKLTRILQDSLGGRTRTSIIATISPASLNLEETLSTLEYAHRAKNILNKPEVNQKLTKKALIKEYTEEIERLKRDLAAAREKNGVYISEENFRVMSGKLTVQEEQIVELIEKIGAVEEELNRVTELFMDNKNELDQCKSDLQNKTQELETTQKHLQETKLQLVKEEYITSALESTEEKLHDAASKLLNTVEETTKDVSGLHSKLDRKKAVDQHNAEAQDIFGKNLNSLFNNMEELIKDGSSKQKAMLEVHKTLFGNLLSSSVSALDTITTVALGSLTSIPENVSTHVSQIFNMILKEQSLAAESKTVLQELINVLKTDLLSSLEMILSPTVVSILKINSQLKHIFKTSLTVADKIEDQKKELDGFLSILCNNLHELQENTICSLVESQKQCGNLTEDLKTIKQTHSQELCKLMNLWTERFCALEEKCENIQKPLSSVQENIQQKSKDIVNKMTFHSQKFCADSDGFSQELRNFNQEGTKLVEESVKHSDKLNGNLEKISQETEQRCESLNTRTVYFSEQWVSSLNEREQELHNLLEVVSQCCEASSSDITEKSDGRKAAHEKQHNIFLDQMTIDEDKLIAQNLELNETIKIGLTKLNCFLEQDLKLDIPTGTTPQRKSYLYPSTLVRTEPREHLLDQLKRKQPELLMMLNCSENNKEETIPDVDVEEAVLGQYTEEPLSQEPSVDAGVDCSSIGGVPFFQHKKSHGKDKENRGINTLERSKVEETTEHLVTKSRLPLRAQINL

[3] = Inhibition of human KSP KHC-L5 mutant using varying ATP levels in presence of saturating levels of microtubule by Lineweaver-Burke plot
[4] = target: T2, Kinesin-like protein KIF11 (Homo sapiens, UniProt P52732); assay: Inhibition of human wild type Eg5 using varying ATP levels in presence of saturating levels of microtubule by Lineweaver-Burke plot
T2 sequence (P52732 whole entry): T1 sequence (whole entry) with V130D

Homo sapiens = species: Homo sapiens; assay: Uncompetitive inhibition of human KSP KHC-L5 mutant with respect to microtubule using varying ATP levels in presence of saturating levels of microtubule by Lineweaver-Burke plot
[5] = target: T3, Kinesin-like protein KIF11 (Homo sapiens) (UniProt P52732); assay: Competitive inhibition of human Eg5 assessed as effect on ATPase activity using varying ATP levels in absence of microtubule by Lineweaver-Burke plot
T3 sequence (whole entry): T1 sequence (whole entry) with V130D

[6] = target: T3, Kinesin-like protein KIF11 (Homo sapiens); assay: Competitive inhibition of human wild type Eg5 with respect to ATP using varying ATP levels in presence of saturating levels of microtubule by Lineweaver-Burke plot

Chain of Kinesin-like protein KIF11 (Homo sapiens, UniProt P52732, A133D) (P52732 whole entry A133D): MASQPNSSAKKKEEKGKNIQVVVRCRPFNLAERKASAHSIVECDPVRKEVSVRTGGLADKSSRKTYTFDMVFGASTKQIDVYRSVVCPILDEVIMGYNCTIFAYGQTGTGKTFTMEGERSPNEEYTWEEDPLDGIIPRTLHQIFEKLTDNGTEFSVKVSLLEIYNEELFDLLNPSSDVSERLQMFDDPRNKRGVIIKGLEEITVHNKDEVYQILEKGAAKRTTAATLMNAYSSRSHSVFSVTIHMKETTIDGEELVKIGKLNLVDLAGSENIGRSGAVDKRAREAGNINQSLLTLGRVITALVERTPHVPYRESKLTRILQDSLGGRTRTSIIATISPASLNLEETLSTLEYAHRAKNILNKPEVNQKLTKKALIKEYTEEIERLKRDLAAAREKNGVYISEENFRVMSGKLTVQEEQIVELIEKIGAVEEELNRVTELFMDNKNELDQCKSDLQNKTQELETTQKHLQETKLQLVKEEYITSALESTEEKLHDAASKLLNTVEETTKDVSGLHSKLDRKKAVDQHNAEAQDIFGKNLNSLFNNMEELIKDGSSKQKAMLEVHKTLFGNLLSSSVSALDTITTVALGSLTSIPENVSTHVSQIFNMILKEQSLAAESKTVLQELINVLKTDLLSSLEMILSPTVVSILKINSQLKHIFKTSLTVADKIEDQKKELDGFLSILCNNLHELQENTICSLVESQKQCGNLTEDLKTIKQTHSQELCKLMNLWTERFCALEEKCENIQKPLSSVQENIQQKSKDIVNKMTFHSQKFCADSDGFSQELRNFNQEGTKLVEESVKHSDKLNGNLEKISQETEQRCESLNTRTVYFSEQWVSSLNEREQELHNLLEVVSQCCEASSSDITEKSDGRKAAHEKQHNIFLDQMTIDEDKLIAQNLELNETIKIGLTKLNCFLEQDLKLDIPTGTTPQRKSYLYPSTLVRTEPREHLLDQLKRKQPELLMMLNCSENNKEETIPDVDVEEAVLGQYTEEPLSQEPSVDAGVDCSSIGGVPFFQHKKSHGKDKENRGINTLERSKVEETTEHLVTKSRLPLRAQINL

Ki [1] [nM] | inhibition [2] | Ki [3] [nM] | Ki [4] [nM] | inhibition (Homo sapiens) | inhibition [5] | inhibition [6] | Structure (SMILES)
6.8 | Active | 6 | 8.8 | Active | inactive | Active | NC(=O)Nc1ccc(-c2ccc(C(F)(F)F)cc2)cc1F
1.4 | Active | 2.1 | 1.8 | Active | inactive | Active | O=C1CCc2cc(-c3ccc(C(F)(F)F)cc3)ccc2N1
